Laboratory results published in patent US20250368633A1, “AZEPINE FUSED RING COMPOUND AS RIPK1 INHIBITOR AND USE THEREOF” (ARTIVILA BIOPHARMA, priority 2022, published 2025).

Legend:
[1] = test system: U937 cells; experiment: EC50 of necroptosis inhibition in U937 cells (TSZ-induced, CellTiter-Glo); format: cell-based; settings: Homo sapiens, U-937; TSZ (hTNF-α, SM-164, Z-VAD-FMK) 20 hours; 10 concentration points; read-out: EC50 intervals of necroptosis inhibition in U937 cells
Protocol: (§1) The biological activity of RIPK1 inhibitors was further evaluated in the inhibition of necroptosis in U937 cells. U937 cell line was purchased from Huatuo Biotechnology and stored in liquid nitrogen. U937 cells were revived before the experiment and cultured in RPMI-1640 medium (supplemented with 10% fetal bovine serum, 100 U/mL penicillin and 100 μg/mL streptomycin) at 37° C., 5% CO2. The activity was further evaluated by the cellular ATP level detected by the Promega CellTiter-Glo 2.0 Assay cell viability assay kit (Catalog No.: G9242).
The experimental method was briefly described as below. U937 cells in the logarithmic growth phase were collected by centrifugation. Cells were diluted to the cell density of 5×10^5 cells/mL with RPMI 1640 medium (supplemented with 10% fetal bovine serum, 100 U/mL penicillin and 100 μg/mL streptomycin). Cell suspension was added to a white sterile 384-well cell culture plate at 15 μL/well. The test compound was dissolved in DMSO to prepare a 10 mM stock solution. The compound was serially diluted with culture medium at a ratio of 1:3, for a total of 10 concentration points. A control with the same DMSO volume was set, with two replicates for each concentration. The diluted compound was added to the 384-well cell culture plate containing cells at 2.5 μL/well and incubated at 37° C., 5% CO2 for 15 minutes. Z-VAD-FMK (Biyuntian, catalog number: C1202-5 mg) was dissolved in DMSO to prepare a 20 mM stock solution. SM-164 (Biyuntian, catalog number: SC0114-10 mM) was dissolved in DMSO to prepare a 10 mM stock solution and diluted to 0.1 mM. hTNF-α (Sino Biological Inc., catalog number: 10602-HNAE) was dissolved in sterile water to 10 μg/mL. RPMI 1640 medium (supplemented with 10% fetal bovine serum, 100 U/mL penicillin and 100 μg/mL streptomycin) was used to prepare the TSZ mixture, containing 133.3 μM Z-VAD-FMK, 33.3 ng/ml hTNF-α and 0.3 μM SM-164. After 15 minutes' coculture of compounds and cells, 7.5 μL of TSZ mixture was added to each well, mixed evenly, and cultured at 37° C., 5% CO2 for 20 hours. After 20 hours, the culture plate was removed and placed at room temperature for 30 minutes. Then, 10 μL of CellTiter-Glo reagent pre-equilibrated at room temperature was added to each well and incubated. After 10 minutes' incubation at room temperature in the dark, the chemiluminescence were measured using a microplate reader. The inhibition rate was calculated as Inh %=(1−(no TSZ-TSZ & compound)/(no TSZ-TSZ))×100. The EC50 was obtained by fitting the nonlinear regression curve log [inhibitor] vs. response−variable slope (four parameters) in GraphPad Prism.

[2] = test system: U937 cells; experiment: Inhibition rate of compound (1 μM) on necroptosis of U937 cells (TSZ-induced, CellTiter-Glo); format: cell-based; settings: TSZ (hTNF-α, SM-164, Z-VAD-FMK) 20 hours
Protocol: as §1
The experimental method was briefly described as below. U937 cells in the logarithmic growth phase were collected by centrifugation. Cells were diluted at the density of 5×10^5 cells/mL with RPMI 1640 medium (supplemented with 10% fetal bovine serum, 100 U/mL penicillin and 100 μg/mL streptomycin). The cell suspension was added to a white sterile 384-well cell culture plate at 15 μL/well. The test compound was dissolved in DMSO to prepare a 10 mM stock solution and diluted to 10 μM with culture medium. At the same time, a control with the same DMSO volume was set up. Two replicates were added for each concentration. The diluted compound was added to the 384-well cell culture plate containing cells at 2.5 µL/well and incubated at 37° C., 5% CO2 for 15 minutes. Z-VAD-FMK (Biyuntian, catalog number: C1202-5 mg) was dissolved in DMSO to prepare a 20 mM stock solution. SM-164 (Biyuntian, catalog number: SC0114-10 mM) was dissolved in DMSO to prepare a 10 mM stock solution and diluted to 0.1 mM. hTNF-α (Sino Biological Inc., catalog number: 10602-HNAE) was dissolved in sterile water to 10 μg/mL. RPMI 1640 medium (supplemented with 10% fetal bovine serum, 100 U/mL penicillin and 100 μg/mL streptomycin) was used to prepare the TSZ mixture, containing 133.3 μM Z-VAD-FMK, 33.3 ng/ml hTNF-α and 0.3 μM SM-164. After 15 minutes' coculture of compounds and cells, 7.5 μL of TSZ mixture was added to each well, mixed evenly, and cultured at 37° C., 5% CO2 for 20 hours. After 20 hours, the culture plate was removed and placed at room temperature for 30 minutes. 10 μL of CellTiter-Glo reagent pre-equilibrated at room temperature was added to each well and incubated for 10 minutes from light. The chemiluminescence was read by a microplate reader. The inhibition rate was calculated as Inh %=(1−(no TSZ-TSZ & compound)/(no TSZ-TSZ))×100.

[3] = target: T1, RIPK1 kinase (Homo sapiens, UniProt Q13546); experiment: In vitro RIPK1 kinase activity assay (ADP-Glo), inhibition by compounds at 1 μM; format: biochemical; settings: compound 1 μM; ATP 10 μM; MBP substrate 100 μg/mL; read-out: RIPK1 kinase activity inhibition rate range
T1 construct: purchased Promega VA7593
T1 sequence (Q13546 1-671): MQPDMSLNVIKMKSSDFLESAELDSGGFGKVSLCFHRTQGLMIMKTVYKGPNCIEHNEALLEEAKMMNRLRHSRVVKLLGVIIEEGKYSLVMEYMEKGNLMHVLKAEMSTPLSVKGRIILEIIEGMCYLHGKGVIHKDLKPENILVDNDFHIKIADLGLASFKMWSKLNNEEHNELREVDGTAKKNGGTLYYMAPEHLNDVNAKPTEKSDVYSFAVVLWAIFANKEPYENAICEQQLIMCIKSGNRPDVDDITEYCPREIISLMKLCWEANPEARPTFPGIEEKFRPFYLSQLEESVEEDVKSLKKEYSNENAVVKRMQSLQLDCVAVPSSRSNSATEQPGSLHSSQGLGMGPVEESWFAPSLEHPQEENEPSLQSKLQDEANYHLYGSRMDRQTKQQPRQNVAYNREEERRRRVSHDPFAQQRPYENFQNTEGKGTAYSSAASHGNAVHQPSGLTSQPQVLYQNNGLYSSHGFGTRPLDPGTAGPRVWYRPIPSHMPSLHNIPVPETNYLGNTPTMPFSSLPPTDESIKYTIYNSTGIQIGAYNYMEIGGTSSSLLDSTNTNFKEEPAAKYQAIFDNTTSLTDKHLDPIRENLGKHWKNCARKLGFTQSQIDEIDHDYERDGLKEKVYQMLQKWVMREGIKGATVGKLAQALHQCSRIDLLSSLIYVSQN
Protocol: RIPK1 kinase activity was assayed using the ADP-Glo assay and RIPK1 kinase reaction system (Promega, catalog number: VA7593). The RIPK1 kinase activity assay was performed according to the Promega kit manual.
The experimental method was briefly described as below. The concentration of RIPK1 kinase in the RIPK1 kinase reaction system was determined by kinase titration and S/B10. Compounds were diluted with 1× kinase buffer D (1% DMSO), and 1 μL of 100 μM compound DMSO stock solution was added to 19 μL 1× kinase buffer D. RIPK1 kinase was diluted with 1× kinase buffer D. 2.5×ATP/substrate was diluted with 1× kinase buffer D. The final concentration of ATP in the kinase reaction system was 10 μM, and the final concentration of MBP substrate was 100 μg/mL. 1 μL of diluted compound and 2 μL of diluted RIPK1 kinase were mixed, incubated at room temperature for 15 minutes, 2 μL of 2.5×ATP/substrate was added, mixed, and incubated at room temperature for 1 hour. 5 μL of ADP-Glo reagent was added to each well and incubated at room temperature for 1 hour. 10 μL of ADP detection reagent was added to each well and incubated at room temperature for another 0.5-1 hour. The chemiluminescent signal was read by a microplate reader and the inhibition rate of kinase activity was calculated.

inhibition at 1 µM [3] [%] | SMILES | EC50 [1] [nM] | Inhibition rate range of compounds (1 μM) on U937 cell necroptosis [2]
– | CN1C(=O)[C@@H](NC(=O)C(=O)NCCc2ccccc2)COc2cc(C#CC3CC3)ccc21 [Example 4, (S)—N^1-(8-(cyclopropylethynyl)-5-methyl-4-oxo-2,3,4,5-tetrahydrobenzo[b][1,4]oxazepin-3-yl)-N^2-phenethyloxalamide] | 500 to 2000 | B (B: 50-89%)
– | CN1C(=O)C(NC(=O)C(=O)NCCc2ccccc2)CCc2cc(C#CC3CC3)ccc21 (centres unmarked) [Example 64, N^1-(7-(cyclopropylethynyl)-1-methyl-2-oxo-2,3,4,5-tetrahydro-1H-benzo[b]azepin-3-yl)-N^2-phenethyloxalamide] | 500 to 2000 | B (B: 50-89%)
– | CN1C(=O)C(NC(=O)C(=O)NCCc2ccccc2)CCc2ccccc21 (centres unmarked) [Example 67, N^1-(1-methyl-2-oxo-2,3,4,5-tetrahydro-1H-benzo[b]azepin-3-yl)-N^2-phenethyloxalamide] | 100 to 500 | A (A: ≥90%)
– | CN1C(=O)[C@@H](NC(=O)C(=O)NCCc2ccccc2)COc2ccc(C#CC3CNC3)cc21 [Example 90, (S)—N^1-(7-(azetidin-3-ylethynyl)-5-methyl-4-oxo-2,3,4,5-tetrahydrobenzo[b][1,4]oxazepin-3-yl)-N^2-phenethyloxalamide] | 100 to 500 | B (B: 50-89%)
25 to 49 | CN1C(=O)[C@@H](NC(=O)C(=O)NCCc2cccc(Cl)c2)COc2ccccc21 [Example 101, (S)—N^1-(3-chlorophenethyl)-N^2-(5-methyl-4-oxo-2,3,4,5-tetrahydrobenzo[b][1,4]oxazepin-3-yl)oxalamide] | – | –
– | CN1C(=O)[C@@H](NC(=O)C(=O)NCCc2cccc(F)c2)COc2ccc(C#CC3(O)CCCCC3)cc21 [Example 112, (S)—N^1-(3-fluorophenethyl)-N^2-(7-((1-hydroxycyclohexyl)ethynyl)-5-methyl-4-oxo-2,3,4,5-tetrahydrobenzo[b][1,4]oxazepin-3-yl)oxalamide] | < 100 | A (A: ≥90%)
– | C[C@H](NC(=O)C(=O)N[C@H]1COc2ccc(C#CCN3CC[C@@H](O)C3)cc2N(C)C1=O)c1ccccc1 [Example 127, N^1-((S)-7-(3-((R)-3-hydroxypyrrolidin-1-yl)prop-1-yn-1-yl)-5-methyl-4-oxo-2,3,4,5-tetrahydrobenzo[b][1,4]oxazepin-3-yl)-N^2-((S)-1-phenylethyl)oxalamide] | 100 to 500 | B (B: 50-89%)
– | C[C@H](NC(=O)C(=O)N[C@H]1COc2ccc(C#CCN3CC[C@H](O)C3)cc2N(C)C1=O)c1ccccc1 [Example 129, N^1-((S)-7-(3-((S)-3-hydroxypyrrolidin-1-yl)prop-1-yn-1-yl)-5-methyl-4-oxo-2,3,4,5-tetrahydrobenzo[b][1,4]oxazepin-3-yl)-N^2-((S)-1-phenylethyl)oxalamide] | 100 to 500 | B (B: 50-89%)
– | C[C@H](NC(=O)C(=O)N[C@H]1COc2ccc(C#CC3(O)COC3)cc2N(C)C1=O)c1ccccc1 [Example 133, N^1-((S)-7-((3-hydroxyoxetan-3-yl)ethynyl)-5-methyl-4-oxo-2,3,4,5-tetrahydrobenzo[b][1,4]oxazepin-3-yl)-N^2-((S)-1-phenylethyl)oxalamide] | 100 to 500 | B (B: 50-89%)
– | C[C@H](NC(=O)C(=O)N[C@H]1COc2ccc(C#CCN3CCOCC3)cc2N(C)C1=O)c1ccccc1 [Example 141, N^1-((S)-5-methyl-7-(3-morpholinoprop-1-yn-1-yl)-4-oxo-2,3,4,5-tetrahydrobenzo[b][1,4]oxazepin-3-yl)-N^2-((S)-1-phenylethyl)oxalamide] | < 100 | A (A: ≥90%)
– | C[C@@H](NC(=O)C(=O)N[C@H]1COc2ccc(C#CC3CN(CCO)C3)cc2N(C)C1=O)c1ccccc1 [Example 150, N^1-((S)-7-((1-(2-hydroxyethyl)azetidin-3-yl)ethynyl)-5-methyl-4-oxo-2,3,4,5-tetrahydrobenzo[b][1,4]oxazepin-3-yl)-N^2-((R)-1-phenylethyl)oxalamide] | < 100 | A (A: ≥90%)
– | C[C@@H](NC(=O)C(=O)N[C@H]1CNc2ccc(C#CCN3CCOCC3)cc2N(C)C1=O)c1ccccc1 [Example 165, N^1-((S)-1-methyl-8-(3-morpholinoprop-1-yn-1-yl)-2-oxo-2,3,4,5-tetrahydro-1H-benzo[b][1,4]diazepin-3-yl)-N^2-((R)-1-phenylethyl)oxalamide] | < 100 | A (A: ≥90%)
